Experimental data: PMC12751014, “Non-Catalytic Inhibitors of the p38/MK2 Interface: Repurposing Approved Drugs to Target Neuroinflammation in Alzheimer’s Disease” (Journal of Medicinal Chemistry, 2025)
“Also recorded” adds a separate entry of the source.

Experiments:
p38/MK2 interaction [1] = molecular target: T1, p38/MK2 interaction (Homo sapiens, UniProt Q16539); assay: TR-FRET assay with purified recombinant His-p38 and GST-MK2; type: binding; details: side-by-side TR-FRET, 2h incubation
Protocol: ENSG00000112062, UniProt ID: Q16539-1) was cloned into a pMCSG7 vector and transformed into Escherichia coli strain BL21(DE3). […] The resuspended cells were lysed through sonication. The lysate was centrifuged for 20 min at 70,000g at 4 °C and the clarified supernatant was passed through a gravity column containing 2 mL Ni-NTA resin pre-equilibrated with equilibration buffer. The resin was then washed with 25 column volumes of equilibration buffer supplemented with 40 mM imidazole, and the protein was eluted with equilibration buffer supplemented with 200 mM imidazole. […] The purity of the enzyme was verified by sodium dodecyl sulfate-polyacrylamide gel electrophoresis (SDS-PAGE) with Coomassie staining, aliquots flash frozen in liquid nitrogen, and stored at -80 °C.

p38/MK2 interaction [2] = molecular target: T1, p38/MK2 interaction; assay: TR-FRET ultra-high-throughput screening (uHTS), 1536-well, HEK293T lysate VF-p38α / GST-MK2; type: binding; design: inhibition of p38/MK2 interaction, primary screen: concentration or dose not given beside the values
HMC3 microglial cells = assay: qRT-PCR of LPS-induced cytokine expression in HMC3 microglial cells; type: cell-based, human; details: HMC3, 5 μM compound 1 h before 100 ng/mL LPS 4 h
Protocol: HMC3 cells were treated with 100 ng/mL E. coli LPS (Sigma-Aldrich, catalog no. L4005) for 4 h in DMEM media. […] Following pretreatment, iMGLs were challenged with 100 ng/mL LPS and 20 ng/mL interferon-γ (IFN-γ) for 24 h to induce an inflammatory response. At the end of the stimulation, cell lysates were collected for qPCR analysis of TNF-α […] gene expression. Total RNA isolation from cell samples was conducted using the RNeasy Plus kit (Qiagen, catalog no. 74134) according to manufacturer instructions and treated with DNase I (Invitrogen, catalog no. 18068-015). Extracted RNA was quantified using the Nanodrop One Spectrophotometer (Thermo Scientific) and then reverse-transcribed into cDNA in equal quantity (<1000 ng/reaction) with the SuperScript III System (Invitrogen, catalog no. 18080-051) following manufacturer directions. cDNA sample was treated with RNase H (Invitrogen, catalog no. 18021014) and diluted to 4 ng/μL equivalent of the starting total RNA. qPCR was performed in 96-well PCR plates (BioRad, catalog no. HSP9601) using the Realplex4Mastercycler (Eppendorf). Each reaction well combines 5 μL cDNA sample, 10 μL 2X SYBR Green Supermix (BioRad, catalog no. 1725271), 1 μL 5 μM primer mix for each target gene, and nuclease-free water up to 20 μL. […] The primer sequences used were: TNFα forward [NT], reverse [NT]-6 forward [NT], reverse [NT]-1β forward [NT], reverse [NT] Each gene was expression-normalized against the housekeeping gene GAPDH with the primer sequences: forward [NT], reverse [NT] Primers were obtained from Integrated DNA Technologies in lyophilized form. The cycler program was set to denaturation at 95 °C for 15 s, followed by annealing and extension at 60 °C for 60 s, repeated for 40 PCR cycles. Melting curve analyses were performed for each sample to ensure primer specificity. The experiment was performed in biological quadruplicates and technical quadruplicates.

[3] = tested on: human iPSC-derived microglia (iMGL); assay: qRT-PCR of LPS/IFNγ-induced TNF-α expression in iPSC-derived microglia (iMGL); type: cell-based; details: 5 μM compound 1 h before LPS/IFN-γ 24 h
[4] = molecular target: T2, endogenous p38/MK2 complex (Homo sapiens, UniProt Q16539); assay: Co-immunoprecipitation of endogenous p38/MK2 complex in HMC3 cells; type: cell-based; details: HMC3 cell lysate
T2 construct: endogenous in cells; host or cells: HMC3 (ATCC CRL-3304)
Protocol: HMC3 cells were lysed with 1% NP-40 lysis buffer, as described above. Clear cell lysate was incubated with equilibrated MK2-Trap Agarose beads (ChromoTek, catalog no. mta-20) or Binding Control Agarose Beads (Chromotek, catalog no. bab-20) and compounds or DMSO at 4 °C for 2 h. Immunoprecipitates were washed three times with 1% NP-40 lysis buffer. Samples were boiled in 1X SDS-PAGE sample buffer (BioRad, catalog no. 1610747) for 5 min before analysis by Western blotting.
Proteins in each sample were separated by SDS-PAGE at 200 V for 40 min using 12.5% acrylamide gels. Transfer to nitrocellulose membranes was completed using the Trans-Blot Turbo Transfer System (BioRad) in TBT buffer (BioRad, catalog no. 10026938). Thirty min incubation in 5% nonfat dry milk (BioRad, catalog no. 170–6404) in TBST buffer (20 mM Tris-base, 150 mM NaCl, and 0.05% Tween 20) at room temperature was used to block membranes. p38α MAPK mouse mAb (Cell Signaling Technology, catalog no. 9217) was used to blot the membrane at 4 °C overnight. […] The wash step was repeated, and the blot was imaged with a ChemiDoc imaging system (BioRad). The SuperSignal West Pico PLUS Chemiluminescent Substrate (Thermo Scientific, catalog no. 34580) was used for developing membranes. Blotting of MK2 was then started with the removal of p38α antibodies using a striping buffer (Thermal Scientific, catalog no. 46430). […]

[5] = molecular target: recombinant His-tagged p38 (Homo sapiens, UniProt Q16539)
p38α [6] = details: systematic kinase profiling; reference number not given; read-out: K d for p38α; cited from earlier work
p38α [7] = details: systematic kinase profiling; reference number not given; read-out: IC50, inhibition of p38α catalysis; cited from earlier work

T1 sequence (Q16539 whole entry): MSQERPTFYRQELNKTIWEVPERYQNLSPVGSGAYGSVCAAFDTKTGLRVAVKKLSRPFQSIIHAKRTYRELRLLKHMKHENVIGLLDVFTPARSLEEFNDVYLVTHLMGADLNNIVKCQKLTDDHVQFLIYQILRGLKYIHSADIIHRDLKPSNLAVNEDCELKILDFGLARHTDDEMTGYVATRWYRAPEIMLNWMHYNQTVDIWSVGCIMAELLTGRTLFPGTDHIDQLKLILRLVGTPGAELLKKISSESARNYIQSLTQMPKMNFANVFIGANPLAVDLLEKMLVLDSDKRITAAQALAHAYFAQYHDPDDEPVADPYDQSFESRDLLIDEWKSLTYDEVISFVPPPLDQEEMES
T2 sequence (Q16539 whole entry, one chain of several): as the sequence (Q16539 whole entry) above
recombinant His-tagged p38, sequence (Q16539 whole entry): as above

SMILES: Cc1cn(-c2cc(NC(=O)c3ccc(C)c(Nc4nccc(-c5cccnc5)n4)c3)cc(C(F)(F)F)c2)cn1 [Nilotinib, 4-methyl-N-[3-(4-methylimidazol-1-yl)-5-(trifluoromethyl)phenyl]-3-[(4-pyridin-3-ylpyrimidin-2-yl)amino]benzamide]
- maximal inhibition of p38/MK2 PPI (p38/MK2 interaction [1]): ~75%
- inhibition of p38/MK2 interaction, primary screen (p38/MK2 interaction [2]; relative to DMSO control, 1536-well): ≥ 50%
- Pct of control (p38/MK2 interaction [2]; uHTS TR-FRET signal, Emory Enriched Library): 8.91 Pct of control
- LPS-induced TNF-α, IL-6, and IL-1β expression (HMC3 microglial cells): significantly (p-value <0.05) suppresses; also recorded: significantly reduced
- LPS/IFNγ-induced TNF-α expression [3]: suppresses; also recorded: suppression
- endogenous p38/MK2 complex formation (co-IP) [4]: disrupts the endogenous p38/MK2 complex
- endogenous p38/MK2 complex formation (co-IP) ([4]; listed as nilotinib): decreased p38/MK2 complex formation
- ΔT max (thermal stabilization) [5]: 8.22 °C
- Kd (p38α [6]): 100 nM
- IC50 (p38α [7]): ~2200 nM
